The source made the active and inactive calls. No rule for the calls is given here.
Target: UPR counterscreen luciferase reporter, luminescence
Experiment: activators in UPR counterscreen luciferase reporter, dose response, counter-screen for adaptive UPR activator project, cell-based, luminescence (AID 489027)

Row | Structure (SMILES) | EC50
1 | CC1C/C(=N/Nc2nc3ccccc3[nH]2)CC(C)(C)C1 (stereo not drawn) | 14.6 µM
2 | CN(C)S(=O)(=O)c1ccc(N2CCCC2)c(C(=O)Nc2nc3ccccc3s2)c1 | 12.7 µM
3 | CCCCCCCCCCOC(=O)Cn1c(COc2ccccc2OC)[n+](C)c2ccccc21 | 12.8 µM
4 | O=C(/C(=N/N=C/c1ccc(O)c(O)c1)c1ccccc1)c1ccccc1 | 8.07 µM
5 | COc1cc(-c2noc(C)c2/C=C/c2ccc(OC(C)=O)cc2)cc(OC)c1OC | > 80 µM (inactive)
6 | O=C(Cn1c2ccc(F)cc2c2nc3n(c(=O)c21)CCS3)Nc1ccc(Cl)cc1F | > 80 µM (inactive)
7 | Cc1ccc(S(=O)(=O)Cc2cc(F)c([N+](=O)[O-])cc2[N+](=O)[O-])cc1 | > 80 µM (inactive)
8 | Cc1cc(C)c(NC(=O)CSc2nc(COc3ccccc3)nc3ccccc23)c(C)c1 | inactive
9 | COc1ccc(/C=N/Nc2cc(C)nc3ccc(Br)cc23)cc1 | 9.88 µM
10 | Cc1ccc(C)c(N=Cc2c(O)c3ccccc3oc2=O)c1 | inactive
11 | Cc1ccc(CN2C(=O)C(=O)c3cc(C)ccc32)cc1 | inactive
12 | CCCCC1CCC(C(=O)N(CC(C)C)c2c(N)n(CCCC)c(=O)[nH]c2=O)CC1 (stereo not drawn) | > 80 µM (inactive)
13 | CCC(=O)Nc1ccc(NC(=O)CSc2nc3cc4c(cc3cc2C)CCC4)cc1 | > 80 µM (inactive)
14 | Cc1ccc(-c2ccnc(-c3ccc(O)cc3)n2)cc1 | > 80 µM (inactive)
15 | COc1ccccc1N=Cc1c(O)c2ccccc2oc1=O | 9.23 µM
16 | N#CCC(=O)N/N=C/c1cn(Cc2ccc3ccccc3c2)c2ccccc12 | 15.6 µM
17 | C=CCOc1ccc(/C=N/N2C(=O)C(CC(=O)Nc3ccc(F)cc3F)SC2=NC)cc1 (stereo not drawn) | > 80 µM (inactive)
18 | COc1ccc(/C=N/Nc2nnc(-c3ccccc3)c(=O)[nH]2)cc1 | 15.6 µM
19 | CCOc1cc(/C=N/NC(=O)Cn2nc([N+](=O)[O-])cc2C)cc(Br)c1OCc1ccccc1C | > 80 µM (inactive)
20 | CCNC(=O)c1c(NC(=O)c2cc(-c3cc(C)ccc3O)n[nH]2)sc2c1CCCC2 | > 80 µM (inactive)
21 | O=c1[nH]c(CSc2ncnc3sc(-c4ccccc4)cc23)nc2ccccc12 | > 80 µM (inactive)
22 | O=C(Nc1ccc(C(F)(F)F)cc1)c1cc(-c2cccnc2)nc2ccc(Br)cc12 | 11.5 µM

Row | Structure (SMILES) | EC50
23 | CCOC(=O)C1=C(C)n2c(s/c(=C/c3cccc([N+](=O)[O-])c3)c2=O)=NC1c1ccc(O)c(OC)c1 (stereo not drawn) | inactive
24 | CCOc1ccc(NC(=S)NC(=O)/C=C/c2ccc(OC)c(OC)c2)c([N+](=O)[O-])c1 | > 80 µM (inactive)
25 | Cn1nc(C(F)(F)F)c(/C=N/OC(=O)c2ccccc2)c1SCc1ccccc1Cl | inactive
26 | CC1CCN(Cc2c(C(=O)N/N=C/c3ccc(C(F)(F)F)cc3)nnn2-c2nonc2N)CC1 | > 80 µM (inactive)
27 | CCOC(=S)SCC(=O)Nc1nc(-c2ccc(Br)cc2)cs1 | 13 µM
28 | O=C(Nc1ccc2oc(-c3ccccc3Cl)nc2c1)c1cncc(Br)c1 | > 80 µM (inactive)
29 | Oc1ccc(/C=N/Nc2cc(N3CCOCC3)nc(N3CCOCC3)n2)cc1O | 3.8 µM
30 | O=C1NC(=O)N(Cc2ccccc2Cl)C(=O)/C1=C/c1cccs1 | 13 µM
31 | CCOC(=O)c1nnc(-c2ccccc2)nc1Oc1ccc(Cl)cc1 | 19.6 µM
32 | CCCCNC(=O)c1ccc(Cn2c(=S)[nH]c3c([nH]c4ccc(OC)cc43)c2=O)cc1 | > 80 µM (inactive)
33 | COc1cc(/C=C(\C#N)c2nc3ccccc3[nH]2)cc(Br)c1OCc1ccc(F)cc1 | 15.3 µM
34 | Oc1ccc(/C=N/Nc2ncnc3c2ncn3Cc2ccccc2)cc1O | 7.62 µM
35 | Cn1c(=O)c2c(SCC(=O)Nc3ccccc3F)nc(-c3ccccc3F)nc2n(C)c1=O | inactive
36 | Cc1ccc(NC(=O)CSc2nc3ccccc3c3nc4ccccc4n23)cc1 | 6.26 µM
37 | Cn1nnnc1Sc1ncnc2scc(-c3ccc(Br)cc3)c12 | 17.1 µM
38 | COc1ccc(-c2csc(NC(=S)NC(=O)/C=C/c3ccco3)n2)cc1Br | inactive
39 | Cc1ccc2nc(Nc3nc(-c4ccccc4)cc(=O)[nH]3)nc(C)c2c1 | > 80 µM (inactive)
40 | C=CCOc1ccc2cccc(/C=N/NC(=O)c3cc4cc([N+](=O)[O-])ccc4s3)c2c1 | inactive
41 | O=[N+]([O-])c1cccc(/C=C/c2ccc3cccc(O)c3n2)c1 | > 80 µM (inactive)
42 | CCOc1ccc(-n2c(C)cc(C(=O)CCl)c2C)cc1 | 6.73 µM
43 | CCOC(=O)c1c(NC(=O)c2cc(C)on2)c2cc([N+](=O)[O-])ccc2n1C | > 80 µM (inactive)
